± gives the expanded uncertainty stated by the source.
Experiment: mn = molality of the nth substance listed, in mol/kg
Details: Liquid, Vibrating tube method

Which mass density (298.27 K, 175 kPa, m1 = 0.7158) does the source give for `[Br-].[Br-].[Zn+2]` [zinc bromide] + CO here?
The mass density was 902.32 ± 0.43 kg/m3.

And the mass density (298.27 K, 206 kPa, m1 = 0.3785)?
Its mass density is 853.39 ± 0.44 kg/m3.

And the mass density (298.27 K, 206 kPa, m1 = 1.951)?
The mass density was 1072.66 ± 0.44 kg/m3.

And the mass density (298.27 K, 4983 kPa, m1 = 1.951)?
The mass density was 1077.46 ± 0.44 kg/m3.

What about the mass density (298.27 K, 4990 kPa, m1 = 0.3785) of the same compound?
Its mass density is 858.17 ± 0.45 kg/m3.

And the mass density (298.27 K, 4998 kPa, m1 = 0.7158)?
The mass density was 907.05 ± 0.44 kg/m3.

And the mass density (298.27 K, 9995 kPa, m1 = 1.951)?
The mass density was 1082.31 ± 0.44 kg/m3.

And the mass density (298.27 K, 10009 kPa, m1 = 0.7158)?
The mass density was 911.75 ± 0.44 kg/m3.

What about the mass density (298.27 K, 10013 kPa, m1 = 0.3785) of the same compound?
Its mass density is 862.94 ± 0.45 kg/m3.

And the mass density (298.27 K, 14985 kPa, m1 = 0.7158)?
Its mass density is 916.21 ± 0.44 kg/m3.

And the mass density (298.27 K, 14995 kPa, m1 = 0.3785)?
The mass density was 867.44 ± 0.46 kg/m3.

What about the mass density (298.27 K, 15001 kPa, m1 = 1.951) of the same compound?
The mass density was 1087.02 ± 0.45 kg/m3.

What about the mass density (298.27 K, 19983 kPa, m1 = 1.951) of the same compound?
Its mass density is 1091.45 ± 0.45 kg/m3.

And the mass density (298.27 K, 19984 kPa, m1 = 0.3785)?
Its mass density is 871.75 ± 0.47 kg/m3.

And the mass density (298.27 K, 19989 kPa, m1 = 0.7158)?
Its mass density is 920.51 ± 0.44 kg/m3.

What about the mass density (298.27 K, 24990 kPa, m1 = 1.951) of the same compound?
The mass density was 1095.81 ± 0.46 kg/m3.

And the mass density (298.27 K, 25018 kPa, m1 = 0.3785)?
Its mass density is 875.78 ± 0.47 kg/m3.

What about the mass density (298.27 K, 25019 kPa, m1 = 0.7158) of the same compound?
Its mass density is 924.66 ± 0.45 kg/m3.

And the mass density (298.27 K, 29988 kPa, m1 = 0.3785)?
Its mass density is 879.71 ± 0.48 kg/m3.

And the mass density (298.27 K, 29996 kPa, m1 = 1.951)?
Its mass density is 1100.02 ± 0.46 kg/m3.

And the mass density (298.27 K, 34982 kPa, m1 = 0.3785)?
Its mass density is 883.51 ± 0.49 kg/m3.

What about the mass density (298.27 K, 34985 kPa, m1 = 0.7158) of the same compound?
Its mass density is 932.44 ± 0.45 kg/m3.

And the mass density (298.27 K, 34998 kPa, m1 = 1.951)?
The mass density was 1104.11 ± 0.47 kg/m3.

What about the mass density (298.27 K, 35000 kPa, m1 = 0.7158) of the same compound?
The mass density was 932.43 ± 0.45 kg/m3.

And the mass density (298.27 K, 39992 kPa, m1 = 0.7158)?
The mass density was 936.16 ± 0.45 kg/m3.

And the mass density (298.27 K, 40008 kPa, m1 = 0.3785)?
The mass density was 887.18 ± 0.49 kg/m3.

And the mass density (298.27 K, 40010 kPa, m1 = 1.951)?
The mass density was 1108.09 ± 0.48 kg/m3.

What about the mass density (298.28 K, 200 kPa, m1 = 0.05772) of the same compound?
Its mass density is 797.74 ± 0.45 kg/m3.

And the mass density (298.28 K, 4999 kPa, m1 = 0.05772)?
The mass density was 802.42 ± 0.46 kg/m3.

And the mass density (298.28 K, 9984 kPa, m1 = 0.05772)?
Its mass density is 807.04 ± 0.47 kg/m3.

What about the mass density (298.28 K, 14988 kPa, m1 = 0.05772) of the same compound?
Its mass density is 811.39 ± 0.48 kg/m3.

And the mass density (298.28 K, 19994 kPa, m1 = 0.05772)?
The mass density was 815.58 ± 0.5 kg/m3.

And the mass density (298.28 K, 24988 kPa, m1 = 0.05772)?
The mass density was 819.58 ± 0.51 kg/m3.

And the mass density (298.28 K, 29998 kPa, m1 = 0.05772)?
Its mass density is 823.42 ± 0.52 kg/m3.

What about the mass density (298.28 K, 34981 kPa, m1 = 0.05772) of the same compound?
The mass density was 827.09 ± 0.54 kg/m3.

And the mass density (298.28 K, 40008 kPa, m1 = 0.05772)?
The mass density was 830.66 ± 0.55 kg/m3.

What about the mass density (323.22 K, 212 kPa, m1 = 0.7158) of the same compound?
The mass density was 876.52 ± 0.44 kg/m3.

And the mass density (323.22 K, 228 kPa, m1 = 0.3785)?
The mass density was 828.32 ± 0.45 kg/m3.

And the mass density (323.22 K, 230 kPa, m1 = 0.05772)?
Its mass density is 773.97 ± 0.45 kg/m3.

And the mass density (323.22 K, 245 kPa, m1 = 1.951)?
The mass density was 1042.34 ± 0.43 kg/m3.

And the mass density (323.22 K, 4983 kPa, m1 = 0.3785)?
Its mass density is 833.75 ± 0.45 kg/m3.

What about the mass density (323.22 K, 4994 kPa, m1 = 0.05772) of the same compound?
The mass density was 779.33 ± 0.46 kg/m3.

What about the mass density (323.22 K, 5004 kPa, m1 = 1.951) of the same compound?
Its mass density is 1047.72 ± 0.43 kg/m3.

And the mass density (323.22 K, 5010 kPa, m1 = 0.7158)?
Its mass density is 881.93 ± 0.44 kg/m3.

What about the mass density (323.22 K, 9982 kPa, m1 = 1.951) of the same compound?
Its mass density is 1053.09 ± 0.44 kg/m3.

And the mass density (323.22 K, 9993 kPa, m1 = 0.3785)?
Its mass density is 839.12 ± 0.46 kg/m3.

And the mass density (323.22 K, 9999 kPa, m1 = 0.7158)?
The mass density was 887.26 ± 0.44 kg/m3.

And the mass density (323.22 K, 10015 kPa, m1 = 0.05772)?
Its mass density is 784.65 ± 0.48 kg/m3.

What about the mass density (323.22 K, 14987 kPa, m1 = 1.951) of the same compound?
Its mass density is 1058.26 ± 0.44 kg/m3.

What about the mass density (323.22 K, 14997 kPa, m1 = 0.05772) of the same compound?
The mass density was 789.6 ± 0.49 kg/m3.

What about the mass density (323.22 K, 14997 kPa, m1 = 0.3785) of the same compound?
The mass density was 844.21 ± 0.47 kg/m3.

What about the mass density (323.22 K, 15018 kPa, m1 = 0.7158) of the same compound?
The mass density was 892.34 ± 0.45 kg/m3.

What about the mass density (323.22 K, 19990 kPa, m1 = 0.3785) of the same compound?
The mass density was 849.04 ± 0.47 kg/m3.

What about the mass density (323.22 K, 19994 kPa, m1 = 0.7158) of the same compound?
Its mass density is 897.14 ± 0.45 kg/m3.

And the mass density (323.22 K, 20007 kPa, m1 = 0.05772)?
Its mass density is 794.31 ± 0.5 kg/m3.

And the mass density (323.22 K, 20009 kPa, m1 = 1.951)?
Its mass density is 1063.24 ± 0.44 kg/m3.

And the mass density (323.22 K, 24981 kPa, m1 = 0.7158)?
The mass density was 901.73 ± 0.45 kg/m3.

What about the mass density (323.22 K, 24985 kPa, m1 = 0.05772) of the same compound?
Its mass density is 798.77 ± 0.52 kg/m3.

What about the mass density (323.22 K, 24994 kPa, m1 = 0.3785) of the same compound?
The mass density was 853.6 ± 0.48 kg/m3.

What about the mass density (323.22 K, 24998 kPa, m1 = 1.951) of the same compound?
The mass density was 1068 ± 0.45 kg/m3.

What about the mass density (323.22 K, 29987 kPa, m1 = 0.7158) of the same compound?
Its mass density is 906.15 ± 0.46 kg/m3.

And the mass density (323.22 K, 29997 kPa, m1 = 1.951)?
Its mass density is 1072.61 ± 0.45 kg/m3.

And the mass density (323.22 K, 30012 kPa, m1 = 0.05772)?
The mass density was 803.09 ± 0.54 kg/m3.

What about the mass density (323.22 K, 30016 kPa, m1 = 0.3785) of the same compound?
The mass density was 857.92 ± 0.49 kg/m3.

What about the mass density (323.22 K, 34994 kPa, m1 = 0.7158) of the same compound?
Its mass density is 910.38 ± 0.46 kg/m3.

And the mass density (323.22 K, 34996 kPa, m1 = 0.05772)?
The mass density was 807.14 ± 0.55 kg/m3.

What about the mass density (323.22 K, 34997 kPa, m1 = 0.3785) of the same compound?
Its mass density is 862.1 ± 0.5 kg/m3.

What about the mass density (323.22 K, 35003 kPa, m1 = 1.951) of the same compound?
The mass density was 1077.08 ± 0.46 kg/m3.

What about the mass density (323.22 K, 39988 kPa, m1 = 0.3785) of the same compound?
Its mass density is 866.11 ± 0.51 kg/m3.

What about the mass density (323.22 K, 39997 kPa, m1 = 0.7158) of the same compound?
Its mass density is 914.47 ± 0.46 kg/m3.

And the mass density (323.22 K, 39998 kPa, m1 = 0.05772)?
The mass density was 811.05 ± 0.57 kg/m3.

And the mass density (323.22 K, 40001 kPa, m1 = 1.951)?
Its mass density is 1081.4 ± 0.46 kg/m3.

And the mass density (348.23 K, 311 kPa, m1 = 0.3785)?
Its mass density is 802.57 ± 0.45 kg/m3.

What about the mass density (348.23 K, 316 kPa, m1 = 0.7158) of the same compound?
The mass density was 850.07 ± 0.44 kg/m3.

And the mass density (348.23 K, 4989 kPa, m1 = 0.7158)?
The mass density was 856.15 ± 0.44 kg/m3.

And the mass density (348.23 K, 5006 kPa, m1 = 0.3785)?
Its mass density is 808.74 ± 0.45 kg/m3.

What about the mass density (348.23 K, 9999 kPa, m1 = 0.3785) of the same compound?
Its mass density is 814.86 ± 0.46 kg/m3.

And the mass density (348.23 K, 10009 kPa, m1 = 0.7158)?
Its mass density is 862.27 ± 0.45 kg/m3.

And the mass density (348.23 K, 14998 kPa, m1 = 0.7158)?
The mass density was 868 ± 0.45 kg/m3.

What about the mass density (348.23 K, 15007 kPa, m1 = 0.3785) of the same compound?
Its mass density is 820.6 ± 0.47 kg/m3.

What about the mass density (348.23 K, 19987 kPa, m1 = 0.3785) of the same compound?
Its mass density is 825.97 ± 0.48 kg/m3.

And the mass density (348.23 K, 19998 kPa, m1 = 0.7158)?
The mass density was 873.4 ± 0.46 kg/m3.

And the mass density (348.23 K, 24998 kPa, m1 = 0.3785)?
Its mass density is 831.08 ± 0.49 kg/m3.

What about the mass density (348.23 K, 25006 kPa, m1 = 0.7158) of the same compound?
Its mass density is 878.54 ± 0.46 kg/m3.

What about the mass density (348.23 K, 29987 kPa, m1 = 0.7158) of the same compound?
Its mass density is 883.42 ± 0.47 kg/m3.

What about the mass density (348.23 K, 29988 kPa, m1 = 0.3785) of the same compound?
Its mass density is 835.92 ± 0.51 kg/m3.

What about the mass density (348.23 K, 34986 kPa, m1 = 0.7158) of the same compound?
Its mass density is 888.06 ± 0.47 kg/m3.

And the mass density (348.23 K, 35004 kPa, m1 = 0.3785)?
Its mass density is 840.55 ± 0.52 kg/m3.

And the mass density (348.23 K, 40002 kPa, m1 = 0.7158)?
Its mass density is 892.55 ± 0.48 kg/m3.

And the mass density (348.23 K, 40007 kPa, m1 = 0.3785)?
Its mass density is 844.98 ± 0.53 kg/m3.
